Our source for the IC50 and melting point values is patent publication US7439242B2, “PPARγ modulators” (Amgen Inc., priority 1998, dated 2008).

The structures appear in SMILES notation.

One data set addresses T1, PPARγ (Homo sapiens, UniProt P37231).
T1 construct: made in house
T1 sequence (P37231 1-505): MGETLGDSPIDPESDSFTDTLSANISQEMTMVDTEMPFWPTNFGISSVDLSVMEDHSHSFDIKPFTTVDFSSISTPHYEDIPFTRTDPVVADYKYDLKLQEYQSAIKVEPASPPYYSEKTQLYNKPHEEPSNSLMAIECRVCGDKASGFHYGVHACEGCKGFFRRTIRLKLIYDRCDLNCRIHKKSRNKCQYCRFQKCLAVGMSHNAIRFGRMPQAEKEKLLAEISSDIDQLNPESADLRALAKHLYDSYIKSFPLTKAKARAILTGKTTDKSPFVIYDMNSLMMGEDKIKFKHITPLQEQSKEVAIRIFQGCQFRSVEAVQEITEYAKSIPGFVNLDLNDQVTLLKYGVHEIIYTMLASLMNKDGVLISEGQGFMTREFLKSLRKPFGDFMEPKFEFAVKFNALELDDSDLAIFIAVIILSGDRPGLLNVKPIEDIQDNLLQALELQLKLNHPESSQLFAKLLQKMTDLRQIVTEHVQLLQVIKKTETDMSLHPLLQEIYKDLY
As to the kind of experiment: PPARγ ligand binding assay utilizing [3H]-BRL 49653 as the radioligand. Particulars: concentration of test compound required to reduce by 50% the specific binding of [3H]-BRL 49653; methods similar to Lehmann et al. An excerpt:
The compounds of the present invention can be evaluated for modulation of the PPARγ receptor using assays such as those described in Jiang, et al., Nature 391:82-86 (1998), Ricote, et al., Nature 391:79-82 (1998) and Lehmann, et al., J. Biol. Chem. 270(12): 12953-12956 (1995). Alternatively, the compounds can be evaluated for their ability to displace radiolabeled BRL 49653 from a PPARγ-GST fusion protein as follows:
PPARγ-GST fusion protein (prepared according to standard procedures), [^3H]—BRL 49653 having 50 Ci/mmol specific activity, Polyfiltronics Unifilter 350 filtration plate and glutathione-Sepharose® beads (from Pharmacia: washed twice with 10×binding buffer in which BSA and DTT can be left out).
Binding buffer (10 mM Tris-HCl, pH 8.0, 50 mM KCl, 10 mM DTT, 0.02% BSA and 0.01% NP-40) is added in 80 microliter amounts to the wells of the filtration plate. The test compound is then added in 10 microliters of DMSO. The PPARγ-GST fusion protein and radiolabeled BRL compound are premixed in binding buffer containing 10 mM DTT and added in 10 microliter amounts to the wells of the plate to provide final concentrations of 1 μg/well of PPARγ-GST fusion protein and 10 nM [^3H]—BRL 49653 compound. The plate is incubated for 15 minutes. Glutathione-agarose bead is added in 50 μL of binding buffer, and the plate is vigorously shaken for one hour. The plate is washed four times with 200 μL/well of binding buffer (without BSA and DTT). The bottom of the plate is sealed and 200 μL/well of scintillation cocktail is added. The top of the plate is then sealed and the radioactivity is determined.
IC50 values are defined as the concentration of test compounds required to reduce by 50% the specific binding of [^3H]-BRL 49653.
As to `CCOC(=O)c1cc(NS(=O)(=O)c2cc(Br)ccc2OC)ccc1Oc1cncc(Cl)c1` [Example 3, ethyl 5-(2-methoxy-5-bromobenzenesulfonamido)-2-(3-chloro-5-pyridyloxy)benzoate], the IC50 was 0.15 µM.

For the molecule `CCOC(=O)c1cc(NS(=O)(=O)c2ccc(OC)c(OC)c2)ccc1Oc1cncc(Cl)c1` [Example 4, ethyl 5-(3,4-dimethoxy-benzenesulfonamido)-2-(3-chloro-5-pyridyloxy)benzoate], the IC50 came to 0.3 µM.

Take `CCOC(=O)c1cc(NS(=O)(=O)c2cc([N+](=O)[O-])ccc2C)ccc1Oc1cncc(Cl)c1` [Example 5, ethyl 5-(2-methyl-5-nitrobenzenesulfonamido)-2-(3-chloro-5-pyridyloxy)benzoate]: the IC50 was found to be 0.8 µM.

`CCOC(=O)c1cc(NS(=O)(=O)c2c(Cl)cccc2Cl)ccc1Oc1cncc(Cl)c1` [Example 6, ethyl 5-(2,6-dichlorobenzenesulfonamido)-2-(3-chloro-5-pyridyloxy)benzoate]: the IC50 was 6 µM.

In turn, `CCOC(=O)c1cc(NS(=O)(=O)c2c(C)cc(Cl)cc2Cl)ccc1Oc1cncc(Cl)c1` [Example 7, ethyl 5-(2,4-dichloro6-methylbenzenesulfonamido)-2-(3-chloro5-pyridyloxy)benzoate] showed an IC50 of 0.8 µM. Against the preceding molecule, the IC50 is about 7.5-fold lower.

System in another data set: not given
Assay: not given
Details: not given
Molecule `CCOC(=O)c1cc(NS(=O)(=O)c2ccc(C(F)(F)F)cn2)ccc1Oc1cncc(Cl)c1` [Example 21, ethyl 5-(5-trifluoromethyl-2-pyridinesulfonamido)-2-(3-chloro-5-pyridyloxy)benzoate] yielded a melting point of 133 to 135 °C.

Turning to `CCOC(=O)c1cc(NS(=O)(=O)c2ccc(Cl)nc2)ccc1Oc1cncc(Cl)c1` [Example 24, ethyl 5-(6-chloro-3-pyridinesulfonamido)-2-(3-chloro-5-pyridyloxy)benzoate], the melting point was in the range of 166 to 168 °C.

Molecule `CCOC(=O)c1cc(NS(=O)(=O)c2cccnc2)ccc1Oc1cncc(Cl)c1` [Example 25, ethyl 5-(3-pyridinesulfonamido)-2-(3-chloro-5-pyridyloxy)benzoate] registered a melting point of 120 to 122 °C.

As to `O=S(=O)(Nc1ccccc1Oc1cncc(Cl)c1)c1ccc(Cl)cc1Cl` [Example 32, 1-(3-chloro-5-pyridyloxy)-2-(2,4-dichlorobenzenesulfonamido)benzene], the melting point was 168 to 170 °C.

Regarding `CCOC(=O)c1cc(S(=O)(=O)Nc2ccc(Cl)cc2Cl)ccc1Oc1cncc(Cl)c1` [Example 40, ethyl 2-(3-chloro-5-pyridyloxy)-5-(2,4-dichlorophenylaminosulfonyl)benzoic acid], the melting point lay within 153 to 155 °C.

`CCOC(=O)c1cc(NC(=O)c2ccc(Cl)cc2Cl)ccc1Oc1cncc(Cl)c1` [Example 41, ethyl 5-(2,4-dichlorobenzamido)-2-(3-chloro-5-pyridyloxy)benzoate] gave a melting point of 125 to 127 °C.

Regarding `O=S(=O)(Nc1cc(C(F)(F)F)ccc1Oc1cncc(Cl)c1)c1ccc(Cl)cc1Cl` [Example 43, 4-(3-chloro-5-pyridyloxy)-3-(2,4-dichlorobenzenesulfonamido)benzotrifluoride], the melting point was 150 to 151.5 °C.
